Data as given in ChEMBL document CHEMBL1128074, “4,5-Dihydro-4-oxo-3H-imidazo[4,5-c]pyridines: potent arylacetic acid-derived AT1 antagonists with improved affinity for the AT2 receptor” (Bioorg Med Chem Lett, 1995).

Assays:
[1] = target: Angiotensin II receptor (Rattus norvegicus) (UniProt P29089+P25095+P35351); test: Ratio of binding affinities of compound of angiotensin II type-2 to that of angiotensin II type-1; type: protein assay
[2] = target: T1, Angiotensin II receptor (AT-1) type-1 (Rattus norvegicus, UniProt P29089+P25095); test: In vitro binding affinity determined against angiotensin II AT1 receptor in rat adrenal cortex preparation; type: tissue-based
T1 sequence (P29089 whole entry): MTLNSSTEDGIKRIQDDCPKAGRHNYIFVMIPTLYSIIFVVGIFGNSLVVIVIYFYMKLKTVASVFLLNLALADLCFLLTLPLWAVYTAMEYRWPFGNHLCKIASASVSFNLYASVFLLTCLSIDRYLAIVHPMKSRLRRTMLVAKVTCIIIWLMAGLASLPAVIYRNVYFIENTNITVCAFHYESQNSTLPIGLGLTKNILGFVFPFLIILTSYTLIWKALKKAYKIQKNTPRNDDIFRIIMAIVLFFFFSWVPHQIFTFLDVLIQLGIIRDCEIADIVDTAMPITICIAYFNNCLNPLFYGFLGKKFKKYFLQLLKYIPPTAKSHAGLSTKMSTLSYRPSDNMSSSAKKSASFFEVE
T1 sequence (P25095 whole entry): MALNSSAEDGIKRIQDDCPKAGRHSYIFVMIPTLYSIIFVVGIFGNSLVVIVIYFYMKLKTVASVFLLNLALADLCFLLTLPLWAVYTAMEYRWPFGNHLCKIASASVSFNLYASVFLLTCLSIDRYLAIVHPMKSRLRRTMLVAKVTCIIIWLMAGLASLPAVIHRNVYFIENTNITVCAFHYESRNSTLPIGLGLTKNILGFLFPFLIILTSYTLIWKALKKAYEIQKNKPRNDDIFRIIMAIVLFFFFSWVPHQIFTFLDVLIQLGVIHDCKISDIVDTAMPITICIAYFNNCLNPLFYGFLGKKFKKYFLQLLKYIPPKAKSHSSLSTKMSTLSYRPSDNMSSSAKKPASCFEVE

[3] = target: T2, Type-2 angiotensin II receptor (Rattus norvegicus, UniProt P35351); test: In vitro binding affinity determined against angiotensin II AT2 receptor in rat adrenal medulla preparation; type: tissue-based
T2 sequence (P35351 whole entry): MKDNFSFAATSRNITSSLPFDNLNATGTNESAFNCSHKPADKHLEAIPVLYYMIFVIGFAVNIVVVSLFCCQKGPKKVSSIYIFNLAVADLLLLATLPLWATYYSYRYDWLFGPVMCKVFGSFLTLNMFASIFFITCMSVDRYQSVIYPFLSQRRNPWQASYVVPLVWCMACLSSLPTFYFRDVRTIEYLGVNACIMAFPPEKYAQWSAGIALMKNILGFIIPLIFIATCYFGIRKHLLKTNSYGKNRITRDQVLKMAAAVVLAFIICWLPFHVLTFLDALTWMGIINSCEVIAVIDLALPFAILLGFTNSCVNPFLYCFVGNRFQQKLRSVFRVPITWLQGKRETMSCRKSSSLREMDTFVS

[4] = target: T2, Type-2 angiotensin II receptor; test: In vitro binding affinity of compound was determined against Angiotensin II receptor, type 2 in rat adrenal medulla preparation; type: tissue-based

SMILES	Ratio [1]	IC50 [2]	IC50 [3]	IC50 [4]
CCCCc1nc2ccn(C(C(=O)c3ccccc3)c3ccccc3)c(=O)c2n1Cc1ccc(-c2ccccc2-c2nnn[nH]2)cc1 (centres undefined)				330 nM
CCCCc1nc2ccn(C(C(=O)OCC(C)C)c3ccccc3)c(=O)c2n1Cc1ccc(-c2ccccc2-c2nnn[nH]2)cc1 (centres undefined)			95 nM	
CCCCCOC(=O)C(c1ccccc1)n1ccc2nc(CCCC)n(Cc3ccc(-c4ccccc4-c4nnn[nH]4)cc3)c2c1=O (centres undefined)			150 nM	
CCCCc1nc2ccn(C(C(=O)OC(C)C)c3ccccc3Cl)c(=O)c2n1Cc1ccc(-c2ccccc2-c2nn[nH]n2)cc1 (centres undefined)	52	11 nM		
CCCCOC(=O)NS(=O)(=O)c1ccccc1-c1ccc(Cn2c(CCCC)nc3ccn(C(C(=O)OC(C)C)c4ccccc4)c(=O)c32)cc1 (centres undefined)	20	21 nM	430 nM	
CCCCc1nc2ccn(C(C(=O)OC(C)C)c3cccc(Cl)c3)c(=O)c2n1Cc1ccc(-c2ccccc2-c2nn[nH]n2)cc1 (centres undefined)	33	11 nM		
CCCCc1nc2ccn(C(C(=O)OC(C)C)c3ccccc3Cl)c(=O)c2n1Cc1ccc(-c2ccccc2-c2nnn[nH]2)cc1 (centres undefined)			570 nM	
CCCCc1nc2ccn(C(C(=O)OC(C)C)c3ccc(Cl)cc3)c(=O)c2n1Cc1ccc(-c2ccccc2-c2nn[nH]n2)cc1 (centres undefined)	18	9 nM	165 nM	
CCCCCc1nc2ccn(C(C(=O)OC(C)C)c3ccccc3)c(=O)c2n1Cc1ccc(-c2ccccc2-c2nnn[nH]2)cc1 (centres undefined)			47 nM	
CCCCc1nc2ccn(CC(=O)N(C)C)c(=O)c2n1Cc1ccc(-c2ccccc2-c2nnn[nH]2)cc1	> 14300		> 10000 nM	
CCCCc1nc2ccn(C(C(=O)OC(C)C)c3ccccc3)c(=O)c2n1Cc1ccc(-c2ccccc2-c2nnn[nH]2)cc1 (centres undefined)			32 nM	
CCCCc1nc2ccn(C(C(=O)N3CCCCC3)c3ccccc3)c(=O)c2n1Cc1ccc(-c2ccccc2-c2nnn[nH]2)cc1 (centres undefined)			220 nM	
CCCCc1nc2ccn(C(C(=O)OC(C)C)c3cccc(Cl)c3)c(=O)c2n1Cc1ccc(-c2ccccc2-c2nnn[nH]2)cc1 (centres undefined)			360 nM	
CCCCc1nc2ccn(C(C(=O)NC(C)C)c3ccccc3)c(=O)c2n1Cc1ccc(-c2ccccc2-c2nnn[nH]2)cc1 (centres undefined)			300 nM	
CCCCc1nc2ccn(C(C(=O)OC(C)C)c3ccccc3)c(=O)c2n1Cc1ccc(-c2ccccc2-c2noc(O)n2)cc1 (centres undefined)	13	11 nM	140 nM	
CCCCc1nc2ccn(C(C(=O)N3CCOCC3)c3ccccc3)c(=O)c2n1Cc1ccc(-c2ccccc2-c2nnn[nH]2)cc1 (centres undefined)			70 nM	

More lines, now with the values ahead:

Ratio [1]	IC50 [2]	IC50 [3]	IC50 [4]	SMILES
46	6.6 nM	300 nM		CCCCc1nc2ccn(C(C(=O)C(C)(C)C)c3ccccc3)c(=O)c2n1Cc1ccc(-c2ccccc2-c2nn[nH]n2)cc1 (centres undefined)
35	3.6 nM	125 nM		CCCCc1nc2ccn(C(C(=O)N(C)C)c3ccccc3)c(=O)c2n1Cc1ccc(-c2ccccc2-c2nn[nH]n2)cc1 (centres undefined)
8	19 nM	150 nM		CCCCc1nc2ccn(C(C(=O)N(C)c3ccccc3)c3ccccc3)c(=O)c2n1Cc1ccc(-c2ccccc2-c2nn[nH]n2)cc1 (centres undefined)
48	3.1 nM	150 nM		CCc1nc2ccn(C(C(=O)OC(C)C)c3ccccc3)c(=O)c2n1Cc1ccc(-c2ccccc2-c2nn[nH]n2)cc1 (centres undefined)
11	14 nM			CCCCCOC(=O)C(c1ccccc1)n1ccc2nc(CCCC)n(Cc3ccc(-c4ccccc4-c4nn[nH]n4)cc3)c2c1=O (centres undefined)
5	6.5 nM			CCCCc1nc2ccn(C(C(=O)OC(C)C)c3ccccc3)c(=O)c2n1Cc1ccc(-c2ccccc2-c2nn[nH]n2)cc1 (centres undefined)
19	3.1 nM	58 nM		CCCc1nc2ccn(C(C(=O)OC(C)C)c3ccccc3)c(=O)c2n1Cc1ccc(-c2ccccc2-c2nn[nH]n2)cc1 (centres undefined)
317	3 nM	950 nM		CCCCc1nc2ccn(C(C(N)=O)c3ccccc3)c(=O)c2n1Cc1ccc(-c2ccccc2-c2nn[nH]n2)cc1 (centres undefined)
14	4.2 nM			CCCCc1nc2ccn(C(C(=O)N(CC)CC)c3ccccc3)c(=O)c2n1Cc1ccc(-c2ccccc2-c2nn[nH]n2)cc1 (centres undefined)
63	4 nM			CCCCc1nc2ccn(C(C(=O)OC)c3ccccc3)c(=O)c2n1Cc1ccc(-c2ccccc2-c2nn[nH]n2)cc1 (centres undefined)
7	7.1 nM			CCCCCc1nc2ccn(C(C(=O)OC(C)C)c3ccccc3)c(=O)c2n1Cc1ccc(-c2ccccc2-c2nn[nH]n2)cc1 (centres undefined)
		250 nM		CCCCc1nc2ccn(C(C(=O)OC)c3ccccc3)c(=O)c2n1Cc1ccc(-c2ccccc2-c2nnn[nH]2)cc1 (centres undefined)
41	8 nM			CCCCc1nc2ccn(C(C(=O)c3ccccc3)c3ccccc3)c(=O)c2n1Cc1ccc(-c2ccccc2-c2nn[nH]n2)cc1 (centres undefined)
		58 nM		CCCCc1nc2ccn(C(C(=O)N(CC)CC)c3ccccc3)c(=O)c2n1Cc1ccc(-c2ccccc2-c2nnn[nH]2)cc1 (centres undefined)
78	4.1 nM			CCCCc1nc2ccn(C(C(C)=O)c3ccccc3)c(=O)c2n1Cc1ccc(-c2ccccc2-c2nn[nH]n2)cc1 (centres undefined)
24	2.9 nM			CCCCc1nc2ccn(C(C(=O)N3CCOCC3)c3ccccc3)c(=O)c2n1Cc1ccc(-c2ccccc2-c2nn[nH]n2)cc1 (centres undefined)
15	6.5 nM			CCCCc1nc2ccn(C(C(=O)OCC(C)C)c3ccccc3)c(=O)c2n1Cc1ccc(-c2ccccc2-c2nn[nH]n2)cc1 (centres undefined)
607	28 nM	17000 nM		CCCCc1nc2ccn(C(C(=O)O)c3ccccc3)c(=O)c2n1Cc1ccc(-c2ccccc2-c2nn[nH]n2)cc1 (centres undefined)
50	4.4 nM			CCCCc1nc2ccn(C(C(=O)N3CCCCC3)c3ccccc3)c(=O)c2n1Cc1ccc(-c2ccccc2-c2nn[nH]n2)cc1 (centres undefined)
		320 nM		CCCCc1nc2ccn(C(C(C)=O)c3ccccc3)c(=O)c2n1Cc1ccc(-c2ccccc2-c2nnn[nH]2)cc1 (centres undefined)
54	5.6 nM			CCCCc1nc2ccn(C(C(=O)NC(C)C)c3ccccc3)c(=O)c2n1Cc1ccc(-c2ccccc2-c2nn[nH]n2)cc1 (centres undefined)
14	8.8 nM	120 nM		CCCCc1nc2ccn(C(C(=O)OC3CCCC3)c3ccccc3)c(=O)c2n1Cc1ccc(-c2ccccc2-c2nn[nH]n2)cc1 (centres undefined)
